In patent US20260009064A1, “STEROL PRODUCTION IN YEAST” (APIX BIOSCIENCES, priority 2021, published 2026):

Test system: managed honeybee colonies
Test: Artificial diets with dried engineered yeast powder fed to managed honeybee colonies (APIDEA hives, three months)
Format: in vivo
Settings: inferred from platform strain diet versus wild-type yeast diet
Experimental: Yeast strains ST4842 (wild-type, containing ergosterol), ST11005 (platform strain engineered to produce tetrahymanol, containing ergosterol and tetrahymanol) and ST12178 (mixed sterol producing strain producing desired phytosterols and tetrahymanol) were cultivated by 5-L fed-batch fermentation as described above. At the end of fermentation, the yeast biomass was recovered from the culture by centrifugation (4000×g, 20 min) and washed with deionized water. The biomass was heat-inactivated and dried (60° C. for a minimum of 24 h). The dried material was ground to a fine powder and stored at −20° C. until further use.
The yeast biomass was then incorporated at 20% w/w into a holidic diet designed to provide additional protein, lipid, sugar, vitamins and minerals. […]
Honeybee colonies were maintained for three months in APIDEA hives (Styrofoam queen mating mini nucleus hives, (Paynes Southdown Bee Farms Ltd, West Sussex. UK) made up of one brood box with five frames and a top feeder with a hole for petty delivery. Hives were maintained within a closed glasshouse environment designed to negate bee escape. Hives were distributed across two rooms of the glasshouse, with varying orientation. Feeders with 30% w/v sugar solution and water were distributed inside the glasshouse and replenished as required. Regular temperature and humidity measurements were recorded on a datalogger. […]

CC1(C)CCC[C@]2(C)[C@H]3CC[C@@H]4[C@@]5(C)CC[C@H](O)C(C)(C)[C@@H]5CC[C@@]4(C)[C@]3(C)CC[C@@H]12 [tetrahymanol]
adverse effects in honeybee colonies: does not have adverse effects
